Laboratory results: patent US10011629B2, “Nucleoside analogs for treatment of the flaviviridae family of viruses and cancer” (Cocrystal Pharma, Inc., priority 2015, dated 2018)

How the values were obtained:
HepaRG cells = assay: HepaRG 14-day cell viability assay (CellTiter-Glo); format: cell-based; conditions: 14 days with 4 repeat doses
Method: IC50 in HepaRG Cells for a 14-Day Assay (Non-Proliferating Liver Cells) Using Cell Titer GLO
HepaRG cells are plated one week prior to dosing to allow for the cells to regain its maximal metabolic activity and structure. HepaRG cells are dosed with increasing concentrations of the test compound (final DMSO concentration=0.5%); final test compound concentrations of 100, 30, 10, 3, 1, 0.3, 0.1, 0.03 μM for an eight point dose response curve (n=3 replicates per concentration) and the microtissues are incubated for 14 days with 4 repeat doses. Appropriate controls are simultaneously used as quality controls. Following the dosing period the medium is removed the cell viability is determined using CellTiter-Glo® reagent. The test sample is subsequently transferred to designated wells of a white assay plate and the luminescence determined using a luminometer.
IC50 values are also determined provided a clear dose-response relationship is observed.

[1] = Cellular toxicity assay in Vero cells; format: cell-based; conditions: African green monkey; for CC50: read-out: Cytotoxicity, CC50; for cytotoxicity: value in parentheses after CC50, read-out: Cytotoxicity (% inhibition)
Method: (§1) The toxicity of the compounds was assessed in Vero, human PBM, CEM (human lymphoblastoid), MT-2, and HepG2 cells, as described previously (see Schinazi R. F., Sommadossi J.-P., Saalmann V., Cannon D. L., Xie M.-Y., Hart G. C., Smith G. A. & Hahn E. F. Antimicrob. Agents Chemother. 1990, 34, 1061-67).
(§2) Cycloheximide was included as positive cytotoxic control, and untreated cells exposed to solvent were included as negative controls. The cytotoxicity IC50 was obtained from the concentration-response curve using the median effective method described previously (see Chou T.-C. & Talalay P. Adv. Enzyme Regul. 1984, 22, 27-55; Belen′kii M. S. & Schinazi R. F. Antiviral Res. 1994, 25, 1-11).

[2] = Cellular toxicity assay in PBM cells; format: cell-based; conditions: human; for CC50: read-out: Cytotoxicity, CC50; for cytotoxicity: value in parentheses after CC50, read-out: Cytotoxicity (% inhibition)
Method: as §1, §2

[3] = Cellular toxicity assay in CEM cells; format: cell-based; conditions: human; for CC50: read-out: Cytotoxicity, CC50; for cytotoxicity: value in parentheses after CC50, read-out: Cytotoxicity (% inhibition)
Method: as §1, §2

[4] = test system: HCV 1b (Huh 7 Clone B cells containing HCV Replicon RNA); assay: HCV replicon assay; format: cell-based; conditions: HCV 1b replicon; for EC50 / EC90: Hepatitis C virus, Huh-7, letter value; for EC50: read-out: EC50 (μM or letter value); for EC90: read-out: EC90 (μM or letter value) or % inhib HCV
Method: Huh 7 Clone B cells containing HCV Replicon RNA were seeded in a 96-well plate at 5000 cells/well, and the compounds tested at 10 μM in triplicate immediately after seeding. Following five days incubation (37° C., 5% CO2), total cellular RNA was isolated by using versaGene RNA purification kit from Gentra. Replicon RNA and an internal control (TaqMan rRNA control reagents, Applied Biosystems) were amplified in a single step multiplex Real Time RT-PCR Assay. The antiviral effectiveness of the compounds was calculated by subtracting the threshold RT-PCR cycle of the test compound from the threshold RT-PCR cycle of the no-drug control (ΔCt HCV). A ΔCt of 3.3 equals a 1-log reduction (equal to 90% less starting material) in Replicon RNA levels. The cytotoxicity of the compounds was also calculated by using the ΔCt rRNA values. 2′-C-Me-C was used as the positive control. To determine EC90 and IC50 values^2, ΔCt: values were first converted into fraction of starting material^3 and then were used to calculate the % inhibition. […]

[5] = test system: nuclear DNA (ß-actin or rRNA gene) in HepG2 cells; assay: Nuclear DNA level in HepG2 cells (real-time PCR); format: cell-based, human; conditions: HepG2 cells, 14-day assay; for % inhibition nDNA: 10 μM; for IC50: read-out: IC50 nDNA
Method: (§3) This assay was used in all studies described in this application that determine the effect of compounds on mitochondrial DNA content. In this assay, low-passage-number HepG2 cells were seeded at 5,000 cells/well in collagen-coated 96-well plates. Test compounds were added to the medium to obtain final concentrations of 0 μM, 0.1 μM, 10 μM and 100 μM. […] The mitochondrial cytochrome c oxidase subunit II (COXII) gene and the ß-actin or rRNA gene were amplified from 5 μl of the eluted nucleic acids using a multiplex Q-PCR protocol with suitable primers and probes for both target and reference amplifications. […] For exon 3 of the ß-actin gene (GenBank accession number E01094) the sense, probe, and antisense primers are 5′-[…]-3′ (SEQ ID NO. 4), 5′-6-[…]-3′ (SEQ ID NO. 5) and 5′-[…]-3′ (SEQ ID NO. 6), respectively. The primers and probes for the rRNA gene are commercially available from Applied Biosystems. […] The comparative CT method uses arithmetic formulas in which the amount of target (COXII gene) is normalized to the amount of an endogenous reference (the B-actin or rRNA gene) and is relative to a calibrator (a control with no drug at day 7). The arithmetic formula for this approach is given by 2-ΔΔCT, where ΔΔCT is (CT for average target test sample−CT for target control)−(CT for average reference test−CT for reference control) (see Johnson M R, K Wang, J B Smith, M J Heslin, R B Diasio. Quantitation of dihydropyrimidine dehydrogenase expression by real-time reverse transcription polymerase chain reaction. Anal. Biochem. 2000; 278:175-184). A decrease in mitochondrial DNA content in cells grown in the presence of drug indicated mitochondrial toxicity.

[6] = test system: mitochondrial DNA (COXII gene) in HepG2 cells; assay: Mitochondrial DNA level in HepG2 cells (real-time PCR); conditions: for % inhibition MitDNA / IC50: HepG2 cells, 14-day assay; for % inhibition MitDNA: 10 μM; for IC50: read-out: IC50 MitDNA
Method: as §3, with “The” for “The comparative CT method uses arithmetic formulas in which the amount of target (COXII gene) is normalized to the amount of an endogenous reference (the B-actin or rRNA gene) and is relative to a calibrator (a control with no drug at day 7). The”

HepG2 cells = assay: Lactic acid production in HepG2 cells; format: cell-based, human; conditions: 14-day assay, 10 μM
Method: To measure the effects of the compounds on lactic acid production, HepG2 cells from a stock culture were diluted and plated in 12-well culture plates at 2.5×10^4 cells per well. […] […] The culture medium was then filtered, and the lactic acid content in the medium was determined using a colorimetric lactic acid assay (Sigma-Aldrich). Since lactic acid product can be considered a marker for impaired mitochondrial function, elevated levels of lactic acid production detected in cells grown in the presence of test compounds would indicate a drug-induced cytotoxic effect.

Tunicamycin [reference compound]
IC50 (HepaRG cells): 0.011 µM

CC(C)OC(=O)[C@H](C)NP(=O)(OC[C@H]1O[C@@H](n2ccc(=O)[nH]c2=O)C(F)(Br)C1O)Oc1ccccc1 (some centres unmarked)
CC50 [1]: > 100 µM | cytotoxicity [1]: 2.6% | CC50 [2]: > 100 µM | cytotoxicity [2]: -3.8% | CC50 [3]: > 100 µM | cytotoxicity [3]: 14%

CC(C)OC(=O)[C@H](C)NP(=O)(OC[C@H]1O[C@@H](n2ccc(N)nc2=O)[C@](F)(Br)[C@@H]1O)Oc1ccccc1 (stereo partly drawn) [Compound 21, Isopropyl ((((2R,3R,4R,5R)-5-(4-amino-2-oxopyrimidin-1(2H)-yl)-4-bromo-4-fluoro-3-hydroxytetrahydrofuran-2-yl)methoxy)(phenoxy)phosphoryl)-L-alaninate]
EC50 (μM or letter value): value printed as % @ 10 μM ([4]; 10 μM): 67.9% @ 10 μM

Nc1ccn([C@H]2CC[C@@H](CO)O2)c(=O)n1 [ddc, reference compound]
% inhibition nDNA [5]: 88.7% | IC50 [5]: < 10 µM | Summary (mitochondrial toxicity) [6]: toxic | % inhibition MitDNA [6]: 99.9% | IC50 [6]: < 10 µM | Lactic acid Production (% of control) (HepG2 cells): 267 ± 25.2 % of control

CC(C)OC(=O)[C@H](C)N[P@](=O)(OC[C@H]1O[C@@H](n2ccc(=O)[nH]c2=O)[C@@](F)(Br)C1O)Oc1ccccc1 (some centres unmarked) [Compound 23]
EC50 [4]: 0.1 to 1 µM | EC90 [4]: 0.1 to 1 µM | IC50 (HepaRG cells; Homo sapiens, 336 h): 35 µM

CC(C)OC(=O)[C@H](C)N[P@@](=O)(OC[C@H]1O[C@@H](n2ccc(=O)[nH]c2=O)[C@@](F)(Br)C1O)Oc1ccccc1 (some centres unmarked) [Compound 22]
EC50 [4]: 0.1 to 1 µM | EC90 [4]: 1 to 10 µM | IC50 (HepaRG cells; Homo sapiens, 336 h): 7.18 µM

N#CC(C#N)=NNc1cccc(Cl)c1 [Carbonyl cyanide m-chlorophenyl hydrazone, reference compound]
IC50 (HepaRG cells; Homo sapiens, 336 h): 5.08 µM

O=c1ccn([C@@H]2O[C@H](CO)[C@@H](O)[C@]2(F)Br)c(=O)[nH]1
CC50 [1]: > 100 µM | cytotoxicity [1]: 4.2% | CC50 [2]: > 100 µM | cytotoxicity [2]: -24% | CC50 ([3]; CEM lymphoblastoid cells): > 100 µM | cytotoxicity ([3]; CEM lymphoblastoid cells): 21%

Nc1ccn([C@@H]2CS[C@H](CO)O2)c(=O)n1 [Compound 3TC, reference compound]
% inhibition nDNA [5]: 26.8% | IC50 [5]: > 10 µM | % inhibition MitDNA [6]: 33.3% | IC50 [6]: > 10 µM | Lactic acid Production (% of control) (HepG2 cells): 94.9 ± 12.2 % of control
